The test system of data set [1] is SW-620. Kind of data set: Reversal of doxorubicin-induced multidrug resistance in human SW620 cells measured after 48 hrs by CCK-8 method. The class given is functional, cell-based. The following applies: SW-620, 48 h. On the technique in general: Tetrazolium assays rely on reduction of a dye to a coloured formazan, in cell work by metabolically active cells.
Data set [2] relates to SW620/AD300. The data set can be described thus: Reversal of doxorubicin-induced multidrug resistance in human SW620/AD300 cells measured after 48 hrs by CCK-8 method. The format is functional, cell-based. The conditions noted are these: SW620/AD300, 48 h.
For data set [3], the system named is SW-620. Kind of data set: Reversal fold, ratio of Doxorubicin IC50 to test compound IC50 for reversal of doxorubicin-induced multi-drug resistance in human SW620 cells measured after 48 hrs by CCK-8 method. The format is functional.
Data set [4] relates to SW620/AD300. The data set can be described thus: Reversal fold, ratio of Doxorubicin IC50 to test compound IC50 for reversal of doxorubicin-induced multi-drug resistance in human SW620/AD300 cells measured after 48 hrs by CCK-8 method. The format is functional.
The nature of data set [5]: Octanol/water partition coefficient, log P of the compound. The format is physicochemical.
The test system of data set [6] is SW-620. Kind of data set: Cytotoxicity against human SW620 cells assessed as cell mortality rate at 5 uM measured after 48 hrs by CCK-8 method relative to control. The class given is functional.
In data set [7] the test system is SW620/AD300. The data set can be described thus: Cytotoxicity against human overexpressing P-gp SW620/AD300 cells assessed as cell mortality rate at 5 uM measured after 48 hrs by CCK-8 method relative to control. The class given is functional.
The subject of data set [8] is SW620/AD300. Kind of data set: Induction of doxorubicin induced apoptosis in human SW620/AD300 cells assessed as viable cells at 5 uM incubated for 48 hrs in presence of doxorubicin by annexin V-FITC and PI staining based flow cytometry analysis (reference value: 92.8%). The following applies: read-out: Activity. The class given is functional. Background: A flow cytometer gives signals particle by particle.

The subject of data set [9] is SW620/AD300. Kind of data set: Induction of doxorubicin induced apoptosis in human SW620/AD300 cells assessed as early apoptotic cells at 5 uM incubated for 48 hrs in presence of doxorubicin by annexin V-FITC and PI staining based flow cytometry analysis (reference value: 4.55%). The format is functional.
Data set [10] deals with SW620/AD300. Kind of data set: Induction of doxorubicin induced apoptosis in human SW620/AD300 cells assessed as late apoptotic cells at 5 uM incubated for 48 hrs in presence of doxorubicin by annexin V-FITC and PI staining based flow cytometry analysis (reference value: 2.07%). The format is functional.
The test system of data set [11] is SW620/AD300. The data set can be described thus: Induction of doxorubicin induced apoptosis in human SW620/AD300 cells assessed as necrotic cells at 5 uM incubated for 48 hrs in presence of doxorubicin by annexin V-FITC and PI staining based flow cytometry analysis (reference value: 0.59%). The format is functional.
The target of data set [12] is ATP-dependent translocase ABCB1 (Homo sapiens, UniProt P08183). The data set can be described thus: Inhibition of P-gp efflux in human SW620/AD300 cells assessed as increase in accumulation of Rh123 by measuring fluorescence intensity at 5.0 uM incubated for 4 hrs followed by Rh123 addition measured after 30 mins by flow cytometric analysis. The class given is cell-based. The following applies: sw620/ad300, 4.5 h.
Sequence of ATP-dependent translocase ABCB1 (P08183 whole entry): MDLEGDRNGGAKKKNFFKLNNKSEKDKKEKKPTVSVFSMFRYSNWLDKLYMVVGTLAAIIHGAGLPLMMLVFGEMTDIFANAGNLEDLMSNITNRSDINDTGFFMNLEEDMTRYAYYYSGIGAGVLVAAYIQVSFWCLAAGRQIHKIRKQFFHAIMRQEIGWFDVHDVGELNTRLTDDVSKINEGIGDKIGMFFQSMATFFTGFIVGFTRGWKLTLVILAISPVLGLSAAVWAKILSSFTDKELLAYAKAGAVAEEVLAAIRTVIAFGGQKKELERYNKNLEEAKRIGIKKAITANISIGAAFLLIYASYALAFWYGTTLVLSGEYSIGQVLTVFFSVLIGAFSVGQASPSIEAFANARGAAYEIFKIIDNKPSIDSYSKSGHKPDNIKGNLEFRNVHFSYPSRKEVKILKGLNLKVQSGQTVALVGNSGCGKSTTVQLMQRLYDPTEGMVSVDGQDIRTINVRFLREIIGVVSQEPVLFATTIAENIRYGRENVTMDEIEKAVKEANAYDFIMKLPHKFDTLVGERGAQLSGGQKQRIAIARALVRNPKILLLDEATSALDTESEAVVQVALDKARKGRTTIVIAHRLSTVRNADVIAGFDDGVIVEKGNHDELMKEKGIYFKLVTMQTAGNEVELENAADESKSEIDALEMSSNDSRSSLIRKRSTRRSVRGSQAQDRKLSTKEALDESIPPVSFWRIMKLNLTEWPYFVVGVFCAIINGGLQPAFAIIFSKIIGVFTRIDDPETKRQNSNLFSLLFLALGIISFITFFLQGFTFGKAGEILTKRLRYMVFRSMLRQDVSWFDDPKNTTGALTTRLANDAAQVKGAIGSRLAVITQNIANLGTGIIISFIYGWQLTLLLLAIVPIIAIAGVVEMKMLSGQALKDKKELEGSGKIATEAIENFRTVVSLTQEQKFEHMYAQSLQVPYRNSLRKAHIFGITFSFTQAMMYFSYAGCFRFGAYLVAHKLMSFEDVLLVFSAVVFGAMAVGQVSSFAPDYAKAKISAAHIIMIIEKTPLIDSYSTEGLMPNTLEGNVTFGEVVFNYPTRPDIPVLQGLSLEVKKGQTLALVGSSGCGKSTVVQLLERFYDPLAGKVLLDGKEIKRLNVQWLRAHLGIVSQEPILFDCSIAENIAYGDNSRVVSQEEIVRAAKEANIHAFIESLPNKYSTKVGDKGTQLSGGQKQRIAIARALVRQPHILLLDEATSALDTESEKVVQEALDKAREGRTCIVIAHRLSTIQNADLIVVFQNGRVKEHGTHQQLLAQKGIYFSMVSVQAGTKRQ

In data set [13] the test system is SW620/AD300. Kind of data set: Induction of doxorubicin induced apoptosis in human SW620/AD300 cells assessed as viable cells at 2.5 uM incubated for 48 hrs in presence of doxorubicin by annexin V-FITC and PI staining based flow cytometry analysis (reference value: 92.8%). The format is functional. The conditions noted are these: read-out: Activity.
In data set [14] the test system is SW620/AD300. Kind of data set: Induction of doxorubicin induced apoptosis in human SW620/AD300 cells assessed as early apoptotic cells at 2.5 uM incubated for 48 hrs in presence of doxorubicin by annexin V-FITC and PI staining based flow cytometry analysis (reference value: 4.55%). The format is functional.
The subject of data set [15] is SW620/AD300. The data set can be described thus: Induction of doxorubicin induced apoptosis in human SW620/AD300 cells assessed as late apoptotic cells at 2.5 uM incubated for 48 hrs in presence of doxorubicin by annexin V-FITC and PI staining based flow cytometry analysis (reference value: 2.07%). The format is functional.
In data set [16] the test system is SW620/AD300. Kind of data set: Induction of doxorubicin induced apoptosis in human SW620/AD300 cells assessed as necrotic cells at 2.5 uM incubated for 48 hrs in presence of doxorubicin by annexin V-FITC and PI staining based flow cytometry analysis (reference value: 0.59%). The class given is functional.
The subject of data set [17] is SW620/AD300. Kind of data set: Downregulation of P-gp expression level in human SW620/AD300 cells at 5 to 10 uM measured after 24 hrs by Western blot analysis. The class given is functional, cell-based. The conditions noted are these: dose 5-10 µM.
Data set [18] concerns SW620/AD300. The data set can be described thus: Downregulation of P-gp expression level in human SW620/AD300 cells at upto 50 uM measured after 24 hrs by Western blot analysis. The format is functional, cell-based. On the technique in general: Immunoblotting shows a protein as a band on a membrane.
In data set [19] the test system is SW620/AD300. The data set can be described thus: Downregulation of P-gp expression level in human SW620/AD300 cells at 2 to 5 uM measured after 24 hrs by qPCR analysis. The class given is functional, cell-based. The following applies: dose 2-5 µM.

SMILES strings stand for the structures. Activity calls are given as the source filed them. No cut-off for these calls is given here. A value given as a limit tells only on which side of the number the result lay.

One may read the IC50 as the concentration needed to halve the response being measured. On to `COc1cccc2c1C(=O)c1c(O)c3c(c(O)c1C2=O)C[C@@](O)(C(=O)CO)C[C@@H]3O[C@H]1C[C@H](N)[C@H](O)[C@H](C)O1` [DOXORUBICIN], for which the values for the concentration for half-maximal inhibition (IC50) in [1] and in data set [2] were 256 nM and 10500 nM, respectively. Further, the “Ratio IC50” value in [3] and in [4] was 1 each time.
For orientation: logP means a log measure of how a compound divides between an organic and an aqueous phase. Regarding `COc1cc2c(cc1OC)CN(CCc1ccc(NC(=O)c3ccccc3NC(=O)c3ccccc3N)cc1)CC2`, the IC50 in data set [1] came to 229 nM; in data set [2] it was 719 nM. Besides, the “Ratio IC50” value amounted to 1.1 in data set [3] and 14.6 in [4]. The molecule further had a log partition coefficient (logP) in data set [5] of 5.78.
The corresponding values for `COc1cc2c(cc1OC)CN(CCc1ccc(NC(=O)c3ccccc3NC(=O)c3ccc(N)cc3)cc1)CC2` are 173 nM, 663 nM, 1.5, 15.9 and 5.23.
What is called mortality is the share of the test organisms that died. As for `COc1ccc(C(=O)Nc2ccccc2C(=O)Nc2ccc(CCN3CCc4cc(OC)c(OC)cc4C3)cc2)cc1OC`, the results for the half-maximal inhibitory concentration (IC50) in [1] and in data set [2] were 63 nM and 223 nM, respectively. Besides, the “Ratio IC50” value in data set [3] was found to be 4; in data set [4], 45.9. The logP in data set [5] was found to be 5.85. For the same molecule, the mortality at 5 µM in data set [6] and in data set [7] was 9% throughout. Besides, in [8], the viability at 5 µM worked out at 57.3%. In addition, the Activity in data set [9] was 38.5%; in data set [10], 3.62%; in data set [11], 0.56%. In addition, the “inhibition (INH)” value in [12] is “Active”.
For `COc1ccc(CCN(C)CCCC(C#N)(c2ccc(OC)c(OC)c2)C(C)C)cc1OC` (stereo not given) [VERAPAMIL], in data set [1], the IC50 was found to be 142 nM.
Regarding `COc1cc2c(cc1OC)CN(CCc1ccc(NC(=O)c3ccccc3NC(=O)CC34CC5CC(CC(C5)C3)C4)cc1)CC2`, the IC50 in [1] amounted to 284 nM; in data set [2], 205 nM. The “Ratio IC50” value in data set [3] came out at 0.9; in data set [4] it was 51.4. For the same molecule, the lipophilicity (logP) in [5] came out at 7.65. Further, the mortality at 5 µM in data set [6] and in data set [7] was below 2% throughout. The viability at 2.5 µM in data set [13] came to 78.9%. In addition, the Activity in data set [14] worked out at 17.7%; in [15] it was 3.15%; in data set [16] it was 0.29%; in [9], 24.7%; in data set [10], 3.93%; in [11], 1.13%. The viability at 5 µM in data set [8] was 70.2%. Also, the result in data set [17], in data set [18] and in data set [19] was inactive. Moreover, the “inhibition (INH)” value in data set [12] is listed as “Active”.
Turning to `COc1cc2c(cc1OC)CN(CCc1ccc(NC(=O)c3ccccc3NC(=O)c3ccc(C(=O)O)cc3)cc1)CC2`, the concentration for half-maximal inhibition (IC50) is 376 nM in data set [1] and 7540 nM in data set [2]. Further, the “Ratio IC50” value in data set [3] was 0.7; in data set [4], 1.4. Moreover, the logP in [5] amounted to 3.16.
Take `COc1cc2c(cc1OC)CN(CCc1ccc(NC(=O)c3ccccc3NC(=O)c3ccc(C(=O)N4CCN(C(=O)CC56CC7CC(CC(C7)C5)C6)CC4)cc3)cc1)CC2`: the results for the half-inhibitory concentration (IC50) in data set [1] and in [2] were 137 nM and 134 nM, respectively. For the same molecule, the “Ratio IC50” value in data set [3] was 1.9; in data set [4] it was 78.6. Further, the logP in data set [5] amounted to 8.04. For the same molecule, the mortality at 5 µM in [6] and in [7] was below 2% throughout. For the same molecule, the viability at 2.5 µM in data set [13] came to 47.8%. Also, the Activity in data set [14] amounted to 50.8%; in data set [15], 1.16%; in data set [16], 0.22%; in [9], 52.1%; in data set [10], 5.15%; in data set [11], 1.17%. In addition, the viability at 5 µM in data set [8] amounted to 42.1%. Further, the outcome in data set [17], in [18] and in data set [19] was inactive. The “inhibition (INH)” value in [12] is “Active”.
For `COc1cc2c(cc1OC)CN(CCc1ccc(NC(=O)c3ccccc3NC(=O)c3ccc(C(=O)NCCNC(=O)CC45CC6CC(CC(C6)C4)C5)cc3)cc1)CC2`, the half-maximal inhibitory concentration (IC50) turned out to be 138 nM in data set [1] and 807 nM in data set [2]. In addition, the results for the “Ratio IC50” value in data set [3] and in [4] were 1.8 and 13, respectively. In data set [5], this molecule displayed a logP of 7.9. For the same molecule, the mortality at 5 µM in [6] and in data set [7] was below 6% each time.
Turning to `COc1cc2c(cc1OC)CN(CCc1ccc(NC(=O)c3ccccc3NC(=O)C34CC5CC(CC(C5)C3)C4)cc1)CC2`, the IC50 in data set [1] was determined as 144 nM; in data set [2] it was 671 nM. In addition, the “Ratio IC50” value in [3] stood at 1.8; in [4], 15.7. In addition, in data set [5], the logP turned out to be 6.83. Also, the mortality at 5 µM in data set [6] and in data set [7] was below 2% in each case. The viability at 2.5 µM in data set [13] was determined as 76.3%. Further, the Activity in data set [14] is 22.7%; in [15], 0.96%; in data set [16] it was 0.08%; in [9], 36.1%; in data set [10], 4.45%; in data set [11], 0.29%. In addition, the viability at 5 µM in [8] turned out to be 59.2%. The outcome in data set [17] and in [19] was inactive. Besides, the result in [18] was Active. Also, the “inhibition (INH)” value in [12] is given as “Active”.
Regarding `COc1cc2c(cc1OC)CN(CCc1ccc(NC(=O)c3ccccc3NC(=O)CCNC(=O)CC34CC5CC(CC(C5)C3)C4)cc1)CC2`, the concentration for half-maximal inhibition (IC50) in [1] is 342 nM; in [2], 379 nM. Moreover, the “Ratio IC50” value in data set [3] is 0.7; in [4] it was 27.7. In addition, in data set [5], the logP stood at 6.89. For the same molecule, the mortality at 5 µM in data set [6] and in data set [7] was below 6% in each case.
Consider `COC(=O)c1ccc(C(=O)Nc2ccccc2C(=O)Nc2ccc(CCN3CCc4cc(OC)c(OC)cc4C3)cc2)cc1`, for which the IC50 in data set [1] worked out at 136 nM; in data set [2], 1010 nM. Further, the “Ratio IC50” value was 1.9 in data set [3] and 10.4 in [4]. Also, in [5], the logP came to 5.77.
For the molecule `COc1cc2c(cc1OC)CN(CCc1ccc(NC(=O)c3ccccc3NC(=O)c3ccc(NC(=O)CC45CC6CC(CC(C6)C4)C5)cc3)cc1)CC2`, the half-maximal inhibitory concentration (IC50) in data set [1] is 489 nM; in data set [2], 498 nM. The “Ratio IC50” value in data set [3] amounted to 0.5; in [4] it was 21.1. The molecule further showed a lipophilicity (logP) in data set [5] of 8.48. The mortality at 5 µM in data set [6] and in data set [7] was below 6% throughout.

For the origin of these results see ChEMBL document CHEMBL5376020, “Synthesis and evaluation of WK-X-34 derivatives as P-glycoprotein (P-gp/ABCB1) inhibitors for reversing multidrug resistance” (RSC Med Chem, 2024).
